Marks after values point to notes of the source that are not given here.
Tests used:
[1] = test system: Candida (oral or esophageal candidiasis); test: Open label pilot trial of dietary xylitol intake in AIDS patients with candida mucositis; type: in vivo, human; set-up: pain symptoms (score) / Sympt. score: scale not given here
From the text: An open label, pilot trial was designed to test the effect of the strategy of dietary xylitol intake in replacement of sugar in patients with candida mucositis. AIDS patients with oral or esophageal candidiasis were selected as subjects for the study because of the frequency and the severity of candida mucositis that they usually develop. Patients with AIDS were considered eligible for the test after their oral or esophageal lesions were documented by microscopic examination of scrapings to be of Candida origin. They were free to continue on any antifungal therapy they might be receiving. Instructions were given to replace the saccharose that they normally take with coffee or tea for crystalline xylitol. Also, to avoid excess sweets like ice cream, cakes. cookies, and artificially flavored drinks that contain glucose. The following was done at baseline and thereafter every 7 days: 1. Pictures of the lesions 2. Tongue imprints in Sabouraud agar 3. Quantitative Candida cultures on unstimulated saliva (CFU/ml) 4. Pain questionnaire (numerical pain scale) 5. Weight 6. Patients kept a daily record of food and drink.

[2] = test system: Candida isolate from AIDS patient No 1; test: Sensitivity test of Candida isolate to antifungals; type: cell-based; details: for sensitivity of the isolate: Candida isolate from AIDS patient No 1
salivary Candida = details: diet of human test group during 8 months; cited from earlier work
[3] = test system: Candida isolate from AIDS patient No 1; test: Growth of Candida isolate on Muller Hinton agar with sugar or sugar alcohol; type: cell-based; details: 5 and 10%, FIG. 1
Method: The effect of sugar alcohols on the growth of said Candida isolate was tested on Muller Hinton agar with 5 and 10% glucose or 5 and 10% xylitol and a control without sugar.

Candida albicans = test: Growth in vitro of Candida albicans in Muller Hinton broth with sweeteners (optical density 650 nm); type: cell-based; details: 10% concentration, 12 strains
From the text: A test was designed to determine the effect on the growth in vitro of Candida albicans of xylitol, lactitol, sorbitol and aspartame in comparison to glucose and a non-carbohydrate control medium. The tested substances have all been used in the food industry as sweeteners. The sweetness of the substances in the above order is respectively 100%, 40%, 60% and 20.000% of the sweetness of glucose.
12 strains of Candida albicans obtained from patients with AIDS and oral candida mucositis were evaluated. The strains were inoculated on Sabouraud agar plates (20% dextrose) and incubated at room temperature for 48 hours. One colony from each plate was inoculated in Muller Hinton broth (without sweetener) and left for 18 hours at 35° C. The tubes were standardized to Mac Farland 0.5 (5×10^6 CFU/ml) and 100 μl inoculated in triplicate in spectrophotometer tubes containing 3 ml of Muller Hinton broth at final concentrations of glucose (5% and 10%); xylitol (5% and 10%); lactitol (5%, 8.3% and 10%); sorbitol (5%, 10% and 12.5%); and aspartame (0.025% and 0.05%). 3 tubes with Muller Hinton broth without carbohydrate was also inoculated to serve as controls.
Optical densities (650 nm) were determined at 0, 24 and 48 hours time. The average of three readings per time, per sweetener concentration was calculated and recorded. […]

Candida = details: cited from earlier work
[4] = test system: Candida (recurrent oral candidiasis); test: Pilot study of xylitol replacing dietary saccharose in patients with recurrent oral candidiasis; type: in vivo, human
From the text: A pilot study was designed to test the effect of xylitol on the clinical course, Candida salivary counts, and antifungal needs of patients with recurrent oral candidiasis. The patients were instructed to replace their dietary saccharose with crystalline xylitol and to avoid excess saccharose-containing-foods and beverages.
Of 14 patients admitted to the test, 8 completed more than 14 days of follow up. The result was that all 8/8 experienced at least 70% regression of their lesions (improvement) with minimal antifungal therapy (1 nystatin tablet 500,000 U/per day); 5/8 had complete regression of the lesions (cure); and 6/8 decreased their salivary Candida counts by 2 logs.

Q: For OC(Cn1cncn1)(Cn1cncn1)c1ccc(F)cc1F [Fluconazole], which follow up esophagoscopy ([1]; AIDS patient No 2, a month later, fluconazole p.o. for 15 days during xylitol trial) is on record?
A: no lesions

Q: And the MIC ([2]; Candida)?
A: > 256 µg/mL

Q: And the “sensitivity of the isolate” value [2]?
A: resistant

Q: Which “number of persons with salivary Candida growth” value (shortened to “number of persons”) (salivary Candida) does the source give for OC[C@H]1O[C@@](CO)(O[C@H]2O[C@H](CO)[C@@H](O)[C@H](O)[C@H]2O)[C@@H](O)[C@@H]1O [sucrose] here?
A: slight increase

Q: With OC[C@@H](O)[C@H](O)[C@@H](O)CO [xylitol] as the compound, how does the esophageal lesions ([1]; AIDS patient No 2, Candida esophagitis, two weeks after start of xylitol intake, no antifungal therapy) read?
A: unchanged lesions

Q: And the Sympt. score ([1]; AIDS patient No 2, day 1)?
A: 18

Q: What about the Weight ([1]; AIDS patient No 2, day 1) of the same compound?
A: 58,5 Kg

Q: And the CFU/ml saliva ([1]; AIDS patient No 2, day 7)?
A: 0 CFU/ml

Q: And the Sympt. score ([1]; AIDS patient No 2, day 7)?
A: 0

Q: And the Weight ([1]; AIDS patient No 2, day 7)?
A: 58,5 Kg

Q: And the Sympt. score ([1]; AIDS patient No 2, day 15)?
A: 0

Q: What about the Weight ([1]; AIDS patient No 2, day 15) of the same compound?
A: 58,5 Kg

Q: What about the CFU/ml saliva ([1]; AIDS patient No 2, day 15, counted at 72 hours) of the same compound?
A: 3,6 × 10^3** CFU/ml

Q: And the Sympt. score ([1]; AIDS patient No 2, day 22)?
A: 0

Q: And the Weight ([1]; AIDS patient No 2, day 22)?
A: 57,5 Kg

Q: And the CFU/ml saliva ([1]; AIDS patient No 2, day 22, counted at 72 hours, fluconazole p.o. started after two weeks)?
A: 4,5 × 10^2** CFU/ml

Q: What about the Sympt. score ([1]; AIDS patient No 2, day 29) of the same compound?
A: 0

Q: And the Weight ([1]; AIDS patient No 2, day 29)?
A: 57,2 Kg

Q: And the CFU/ml saliva ([1]; AIDS patient No 2, day 29, fluconazole p.o. started after two weeks)?
A: 0 CFU/ml

Q: And the Sympt. score ([1]; AIDS patient No 2, day 36)?
A: 0

Q: What about the Weight ([1]; AIDS patient No 2, day 36) of the same compound?
A: 57,7 Kg

Q: What about the CFU/ml saliva ([1]; AIDS patient No 2, day 36, fluconazole p.o. 15 days given after two weeks) of the same compound?
A: 0 CFU/ml

Q: What about the Sympt. score ([1]; AIDS patient No 2, day 50) of the same compound?
A: 0

Q: What about the Weight ([1]; AIDS patient No 2, day 50) of the same compound?
A: 56,9 Kg

Q: What about the CFU/ml saliva ([1]; AIDS patient No 2, day 50, fluconazole p.o. 15 days given after two weeks) of the same compound?
A: 0 CFU/ml

Q: And the symptom-free follow-up period ([1]; AIDS patient No. 1, about 30 g crystalline xylitol daily)?
A: 80 days

Q: And the Candida counts ([1]; AIDS patient No. 1, after 2.5 months)?
A: still negative

Q: What about the Sympt. score ([1]; AIDS patient No. 1, day 1) of the same compound?
A: 18

Q: What about the Weight ([1]; AIDS patient No. 1, day 1) of the same compound?
A: 62 kg

Q: And the CFU/mL saliva ([1]; AIDS patient No. 1, day 1, counted at 48 hours)?
A: 1×10^4 CFU/mL

Q: And the Sympt. score ([1]; AIDS patient No. 1, day 8)?
A: 0

Q: And the Weight ([1]; AIDS patient No. 1, day 8)?
A: 62.6 kg

Q: What about the CFU/mL saliva ([1]; AIDS patient No. 1, day 8, plates held for 7 days) of the same compound?
A: 0** CFU/mL

Q: And the Sympt. score ([1]; AIDS patient No. 1, day 18)?
A: 0

Q: What about the Weight ([1]; AIDS patient No. 1, day 18) of the same compound?
A: 73.4 kg

Q: And the CFU/mL saliva ([1]; AIDS patient No. 1, day 18, plates held for 7 days)?
A: 0** CFU/mL

Q: What about the Sympt. score ([1]; AIDS patient No. 1, day 29) of the same compound?
A: 0

Q: What about the Weight ([1]; AIDS patient No. 1, day 29) of the same compound?
A: 73 kg

Q: What about the CFU/mL saliva ([1]; AIDS patient No. 1, day 29, plates held for 7 days) of the same compound?
A: 0** CFU/mL

Q: And the Sympt. score ([1]; AIDS patient No. 1, day 36)?
A: 0

Q: What about the Weight ([1]; AIDS patient No. 1, day 36) of the same compound?
A: 74.8 kg

Q: What about the CFU/mL saliva ([1]; AIDS patient No. 1, day 36, plates held for 7 days) of the same compound?
A: 0** CFU/mL

Q: And the Sympt. score ([1]; AIDS patient No. 1, day 56)?
A: 0

Q: And the Weight ([1]; AIDS patient No. 1, day 56)?
A: 75 kg

Q: What about the CFU/mL saliva ([1]; AIDS patient No. 1, day 56, plates held for 7 days) of the same compound?
A: 0** CFU/mL

Q: And the Sympt. score ([1]; AIDS patient No. 1, day 80)?
A: 0

Q: What about the Weight ([1]; AIDS patient No. 1, day 80) of the same compound?
A: 75.1 kg

Q: What about the CFU/mL saliva ([1]; AIDS patient No. 1, day 80, plates held for 7 days) of the same compound?
A: 0** CFU/mL

Q: And the Candida counts ([1]; AIDS patient No. 1, day seven)?
A: negative

Q: What about the weight gained ([1]; AIDS patient No. 1, follow-up of 80 days) of the same compound?
A: 13.1 kilograms

Q: What about the “time to disappearance of the lesions” value ([1]; AIDS patient No. 1, ketoconazole discontinued on day four) of the same compound?
A: 1 week

Q: And the “improvement noticed by the patient” value ([1]; AIDS patient No. 1, on ketoconazole until day four)?
A: clear improvement on day four

Q: And the “time to recurrence of oral candidiasis after stopping the xylitol trial” value ([1]; AIDS patient No. 3)?
A: 4 days

Q: What about the “pain symptoms (score)” value ([1]; AIDS patient No. 3, at start) of the same compound?
A: 30

Q: And the saliva counts ([1]; AIDS patient No. 3, first 17 days)?
A: diminished

Q: What about the “pain symptoms (score)” value ([1]; AIDS patient No. 3, in the first 17 days, 1 nystatin troche during the first five days) of the same compound?
A: 8

Q: What about the “number of persons” value (salivary Candida) of the same compound?
A: significantly reduced

Q: What about the “growth of Candida isolate compared to control without sugar” value [3] of the same compound?
A: inhibited in a dose dependent way

Q: What about the “rank among tested compounds at reducing the growth of Candida in vitro” value (Candida albicans) of the same compound?
A: by far the best

Q: And the “Candida growth and invasion compared to controls” value (Candida; given instead of glucose)?
A: did not increase

Q: What about the “invasion of gastrointestinal mucosa by Candida relative to mice receiving glucose” value (Candida; immunocompromised mice) of the same compound?
A: five times less

Q: What about the “scores of invasion versus control mice receiving no sugar” value (Candida; immunocompromised mice) of the same compound?
A: not significantly different

Q: What about the “lesions and fungal cultures after 4 months of xylitol intake” value ([4]; 1 patient, previously fluconazole resistant isolate (E test)) of the same compound?
A: without lesions and sterile fungal cultures

Q: What about the “patients who decreased their salivary Candida counts by 2 logs” value ([4]; more than 14 days follow up) of the same compound?
A: 6/8

Q: What about the “patients with complete regression of the lesions (cure)” value ([4]; more than 14 days follow up) of the same compound?
A: 5/8

Q: And the “patients with at least 70% regression of their lesions (improvement)” value ([4]; more than 14 days follow up, with minimal antifungal therapy (1 nystatin tablet 500,000 U/per day))?
A: 8/8

Q: What about the “time to return to baseline after returning to saccharose intake” value ([4]; three patients) of the same compound?
A: 3 days

Q: With O=C(CO)[C@@H](O)[C@H](O)[C@H](O)CO [fructose] as the compound, how does the “number of persons” value (salivary Candida) read?
A: slight increase

Q: Which “sensitivity of the isolate” value [2] does the source give for C[C@@H]1[C@H](O)[C@@H](C)/C=C/C=C/C=C/C=C/C=C/C=C/C=C/[C@H](O[C@@H]2O[C@H](C)[C@@H](O)[C@H](N)[C@@H]2O)C[C@@H]2O[C@](O)(C[C@@H](O)C[C@@H](O)[C@H](O)CC[C@@H](O)C[C@@H](O)CC(=O)O[C@H]1C)C[C@H](O)[C@H]2C(=O)O [Amphotericin B] here?
A: sensitive

— US6414035B1, “Use of polyols in combating yeast infection and polyol preparations for said use” (priority 1997, dated 2002)
